Experimental data from patent US10676504B2 (Colorado State University Research Foundation, priority 2015, dated 2020).
Like-named read-outs stand apart in the source and are kept apart here.

What was measured:
[1] = tested on: 10326 NUT midline carcinoma cell line; experiment: 10326 cell viability (ATPLite); type: cell-based; settings: Table P2; 48 hours incubation
Procedure: (§1) Addition of compound was performed with a JANUS Workstation (PerkinElmer Life and Analytical Sciences) using a 384-well pinhead tool that is calibrated to deliver 100 nL drug/well. After 48 hours of incubation with compound, cells were analyzed for cell viability using the ATPLite (Perkin Elmer) luminescent assay kit per the manufacturer's instructions. […] Replicate measurements were analyzed with respect to dose and estimates of IC50 were calculated by logistic regression (GraphPad Prism).

[2] = tested on: 797 NUT midline carcinoma cell line; experiment: 797 cell viability (ATPLite); type: cell-based; settings: Table P2; 48 hours incubation
Procedure: as §1

HDACs 1-3 = experiment: HDAC biochemical assay of P5-P12, summary statements
HDAC6 = target: T1, HDAC6 (Homo sapiens, UniProt Q9UBN7); experiment: HDAC biochemical assay of P5-P12 (Table P1); parameters: The recombinant, full-length HDAC protein (BPS Biosciences) was incubated; purchased BPS Biosciences; settings: 200 μM TCEP
T1 sequence (Q9UBN7 1-1215): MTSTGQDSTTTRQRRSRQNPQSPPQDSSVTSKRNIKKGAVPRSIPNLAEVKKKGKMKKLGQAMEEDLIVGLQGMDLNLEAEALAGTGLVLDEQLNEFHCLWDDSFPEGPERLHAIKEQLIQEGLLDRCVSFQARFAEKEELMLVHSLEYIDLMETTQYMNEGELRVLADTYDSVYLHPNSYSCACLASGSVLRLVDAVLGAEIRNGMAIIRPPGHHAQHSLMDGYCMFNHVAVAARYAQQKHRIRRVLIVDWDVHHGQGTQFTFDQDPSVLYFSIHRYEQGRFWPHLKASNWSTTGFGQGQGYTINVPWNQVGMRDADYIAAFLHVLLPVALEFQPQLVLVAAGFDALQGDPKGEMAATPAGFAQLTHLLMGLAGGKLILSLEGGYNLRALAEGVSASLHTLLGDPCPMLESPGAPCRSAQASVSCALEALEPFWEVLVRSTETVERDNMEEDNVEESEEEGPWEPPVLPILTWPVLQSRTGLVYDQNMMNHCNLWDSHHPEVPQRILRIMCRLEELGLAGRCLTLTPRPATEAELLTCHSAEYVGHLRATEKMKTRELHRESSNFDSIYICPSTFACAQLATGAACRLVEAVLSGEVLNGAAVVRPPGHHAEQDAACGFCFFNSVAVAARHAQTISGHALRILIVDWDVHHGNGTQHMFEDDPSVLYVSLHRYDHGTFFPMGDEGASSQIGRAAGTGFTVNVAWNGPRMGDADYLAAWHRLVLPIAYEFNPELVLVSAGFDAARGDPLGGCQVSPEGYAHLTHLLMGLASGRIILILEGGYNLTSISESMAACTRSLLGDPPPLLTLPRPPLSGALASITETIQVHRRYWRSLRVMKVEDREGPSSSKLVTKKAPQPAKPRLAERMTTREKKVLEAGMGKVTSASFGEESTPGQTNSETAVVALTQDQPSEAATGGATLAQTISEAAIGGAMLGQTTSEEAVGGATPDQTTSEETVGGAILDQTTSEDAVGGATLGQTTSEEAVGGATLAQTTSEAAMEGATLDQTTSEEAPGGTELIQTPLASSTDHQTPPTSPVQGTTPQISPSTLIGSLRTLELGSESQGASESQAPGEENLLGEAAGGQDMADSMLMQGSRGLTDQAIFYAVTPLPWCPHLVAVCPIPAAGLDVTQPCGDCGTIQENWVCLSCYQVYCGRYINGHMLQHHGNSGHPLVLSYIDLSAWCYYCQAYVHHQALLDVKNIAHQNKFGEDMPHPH

HDAC8 = target: T2, HDAC8 (Homo sapiens, UniProt Q9BY41); experiment: HDAC biochemical assay of P5-P12 (Table P1); parameters: The recombinant, full-length HDAC protein (BPS Biosciences) was incubated; purchased BPS Biosciences; settings: Table P1
T2 sequence (Q9BY41 1-377): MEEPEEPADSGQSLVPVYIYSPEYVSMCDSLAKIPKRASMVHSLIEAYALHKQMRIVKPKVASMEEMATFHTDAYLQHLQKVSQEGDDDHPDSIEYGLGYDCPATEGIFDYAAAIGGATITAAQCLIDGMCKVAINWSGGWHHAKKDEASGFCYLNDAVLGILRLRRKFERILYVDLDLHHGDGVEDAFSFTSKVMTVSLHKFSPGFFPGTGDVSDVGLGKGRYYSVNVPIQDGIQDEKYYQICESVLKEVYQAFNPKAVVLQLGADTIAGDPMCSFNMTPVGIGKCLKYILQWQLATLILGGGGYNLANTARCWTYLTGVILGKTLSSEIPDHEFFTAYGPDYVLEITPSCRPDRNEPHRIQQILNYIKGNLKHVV

HDAC3 = target: T3, HDAC3 (Homo sapiens, UniProt O15379); experiment: HDAC biochemical assay of P5-P12 (Table P1); settings: Table P1
T3 construct: The recombinant, full-length HDAC protein (BPS Biosciences) was incubated; purchased BPS Biosciences

HDAC1 = HDAC1 (Homo sapiens, UniProt Q13547); experiment: HDAC biochemical assay of P5-P12 (Table P1); parameters: The recombinant, full-length HDAC protein (BPS Biosciences) was incubated; purchased BPS Biosciences; settings: Table P1
HDAC2 = HDAC2 (Homo sapiens, UniProt Q92769); experiment: HDAC biochemical assay of P5-P12 (Table P1); parameters: The recombinant, full-length HDAC protein (BPS Biosciences) was incubated; purchased BPS Biosciences; settings: Table P1
[3] = the molecule shown is the open-chain precursor, amide bond, 16-membered ring, 3 steps
human HDACs = experiment: HDAC biochemical assay (Example 16), summary statements over isoforms; settings: all isoforms tested
Procedure: The inhibitory effect of compounds on deacetylase isoenzyme function was determined in vitro using an optimized homogenous assay performed in 384-well plate format. […] Data are analyzed on a plate-by-plate basis for the linear range of fluorescence over time. Data from the plate capture corresponding to the mid-linear range is imported into analytical software and annotated with well identity and compound concentration (Spotfire DecisionSite). Replicate experimental data from incubations with inhibitor are normalized to control, solvent-only wells and IC-50 is determined by logistic regression.
Thus, small-molecule inhibitors were arrayed at twelve-point dose-response (3-fold increments) in 384-well library plates and transferred by robotic pin device to replicate assay plates containing assay buffer under reducing conditions (TCEP 200 μM). A liquid handling device then transferred a tripeptide substrate terminating in acetyl-lysine and amide conjugated to 4-methyl-7-aminocoumarin (AMC), recombinant human histone deacetylase (BPS Bioscience, San Diego, Calif.), and recombinant human trypsin (Sigma-Aldrich, St. Louis, Mo.). […] Kinetic (fluorescence per unit time) and end-point (total fluorescence) data were captured by a multilabel plate reader. Replicate data were analyzed by curve-fit using logistic regression (Spotfire Decision-Site). […]

NCI-60 cancer cell lines [4] = experiment: cells
Source text: (§2) All compounds submitted for screening were initially tested at a single high dose (10^-5 M) against the fill NCI 60 cell panel. Only compounds which satisfied pre-determined threshold inhibition criteria in a minimum number of cell lines progressed to a second round of testing utilizing a more comprehensive 5-dose inhibition assay. The threshold inhibition criteria for progression to the 5-dose assays were selected to efficiently capture compounds with anti-proliferative activity based on historical DTP screening data.
(§3) Concentrations for G150, IC50, TGI, and LC50 were calculated for all cell lines tested, and heat plots were prepared.

CNS cancer cell lines [5] = settings: for Percent of Cell Lines Impacted (%), LC50, CNS: five-dose
Source text: as §2, §3

melanoma cell lines [6] = experiment: cells; settings: read-out: Average Concentration (M), LC50, Melanoma
Source text: as §2, §3

NCI-60 cancer cell lines [7] = settings: five-dose; for Percent of Cell Lines Impacted (%), GI50: 50% Growth Inhibition; for Percent of Cell Lines Impacted (%), LC50: 50% Lethal Concentration reached; for Percent of Cell Lines Impacted (%), TGI / Total Impacted Cell Lines (n), TGI: Total Growth Inhibition; for Average Concentration (M), TGI: average over impacted cell lines
Source text: as §2, §3

colon cancer cell lines [8] = settings: for Percent of Cell Lines Impacted (%), LC50, Colon: five-dose
Source text: as §2, §3

melanoma cell lines [9] = settings: for Percent of Cell Lines Impacted (%), LC50, Melanoma: five-dose
Source text: as §2, §3

CNS cancer cell lines [10] = experiment: cells; settings: read-out: Average Concentration (M), LC50, CNS
Source text: as §2, §3

colon cancer cell lines [11] = experiment: cells; settings: read-out: Average Concentration (M), LC50, Colon
Source text: as §2, §3

renal cancer cell lines = settings: for Percent of Cell Lines Impacted (%), LC50, Renal: five-dose
Source text: as §2, §3

[12] = tested on: ovarian cancer cell lines
Source text: as §2, §3

[13] = read-out: Average Concentration (M), GI50

T3 sequence (O15379 whole entry): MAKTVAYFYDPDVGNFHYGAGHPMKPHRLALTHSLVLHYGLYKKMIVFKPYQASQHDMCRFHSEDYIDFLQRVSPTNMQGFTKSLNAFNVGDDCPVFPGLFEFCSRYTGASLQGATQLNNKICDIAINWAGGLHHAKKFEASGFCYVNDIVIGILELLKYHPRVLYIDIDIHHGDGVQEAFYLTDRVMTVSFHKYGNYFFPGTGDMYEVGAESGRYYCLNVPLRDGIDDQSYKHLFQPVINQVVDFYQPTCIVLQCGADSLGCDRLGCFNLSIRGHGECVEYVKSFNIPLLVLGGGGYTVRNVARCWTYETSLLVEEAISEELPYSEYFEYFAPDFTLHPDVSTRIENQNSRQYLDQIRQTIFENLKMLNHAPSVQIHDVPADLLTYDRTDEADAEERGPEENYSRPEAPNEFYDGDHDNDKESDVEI
T3 sequence (Q9Y618 395-489 partner limits assumed): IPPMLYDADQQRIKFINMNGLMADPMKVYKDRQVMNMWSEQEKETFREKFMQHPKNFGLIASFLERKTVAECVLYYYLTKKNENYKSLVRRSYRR
HDAC2, sequence (Q92769 whole entry): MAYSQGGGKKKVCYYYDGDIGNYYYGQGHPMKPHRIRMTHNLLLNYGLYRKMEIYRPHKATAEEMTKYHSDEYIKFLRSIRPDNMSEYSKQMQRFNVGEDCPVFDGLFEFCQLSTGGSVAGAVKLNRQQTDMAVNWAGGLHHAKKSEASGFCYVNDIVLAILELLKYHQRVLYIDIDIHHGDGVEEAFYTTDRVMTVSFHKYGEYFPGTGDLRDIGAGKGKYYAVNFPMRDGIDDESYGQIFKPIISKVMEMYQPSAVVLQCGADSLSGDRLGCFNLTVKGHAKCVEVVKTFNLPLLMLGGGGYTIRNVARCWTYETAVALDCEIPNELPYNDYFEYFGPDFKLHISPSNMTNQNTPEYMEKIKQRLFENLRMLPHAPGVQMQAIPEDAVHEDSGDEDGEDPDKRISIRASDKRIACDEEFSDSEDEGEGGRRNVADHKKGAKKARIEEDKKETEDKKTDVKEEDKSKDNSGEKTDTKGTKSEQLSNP
HDAC1, sequence (Q13547 whole entry): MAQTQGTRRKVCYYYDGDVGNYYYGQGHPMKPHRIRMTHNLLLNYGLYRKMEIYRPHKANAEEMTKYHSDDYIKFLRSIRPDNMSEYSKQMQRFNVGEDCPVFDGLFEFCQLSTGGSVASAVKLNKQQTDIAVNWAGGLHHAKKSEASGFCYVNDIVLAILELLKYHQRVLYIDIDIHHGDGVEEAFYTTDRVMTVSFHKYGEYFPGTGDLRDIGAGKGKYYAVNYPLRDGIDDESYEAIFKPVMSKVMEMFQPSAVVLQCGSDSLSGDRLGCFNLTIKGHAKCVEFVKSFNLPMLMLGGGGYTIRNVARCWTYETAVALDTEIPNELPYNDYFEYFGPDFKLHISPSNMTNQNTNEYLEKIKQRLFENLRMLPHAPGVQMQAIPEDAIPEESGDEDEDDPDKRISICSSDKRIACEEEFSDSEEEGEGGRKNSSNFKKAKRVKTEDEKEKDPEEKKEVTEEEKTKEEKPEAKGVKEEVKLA

Compound: CC(C)[C@@H]1NC(=O)[C@]2(C)CSC(=N2)c2cccc(n2)CNC(=O)C[C@@H](/C=C/CCS)OC1=O [Compound P6, Depsipeptide Pyridyl “IN” Thiol]
- IC50 [1]: 290 nM
- IC50 [2]: 220 nM
- IC50 range in words for HDACs 1-3 (HDACs 1-3): single digit nM range
- IC50 (HDAC6): 48.5 nM
- IC50 (HDAC8): 341 nM
- IC50 (HDAC3): 3.07 nM

Compound: CC(C)[C@@H]1NC(=O)[C@]2(C)CSC(=N2)c2ccnc(c2)CNC(=O)C[C@@H](/C=C/CCS)OC1=O [Compound P8, Depsipeptide Pyridyl “OUT” Thiol]
- IC50 [1]: 120 nM
- IC50 [2]: 90 nM
- IC50 (HDAC1): 2.2 nM
- IC50 range in words for HDACs 1-3 (HDACs 1-3): single digit nM range
- IC50 (HDAC2): 4.42 nM
- IC50 (HDAC6): 35.2 nM
- IC50 (HDAC8): 102 nM
- IC50 (HDAC3): 2.31 nM

Compound: COC(=O)C[C@@H](/C=C/CCSC(c1ccccc1)(c1ccccc1)c1ccccc1)NC(=O)[C@@H](NC(=O)[C@]1(C)CSC(c2ccnc(CNC(=O)OC(C)(C)C)c2)=N1)C(C)C [Trityl Protected Peptide Isostere Pyridyl “OUT” Macrocycle]
- ring closure, isolated yield ([3]; HATU/HOBt/DIEA, MeCN, 0.97 mM, […]): 32%

Compound: CC(C)[C@@H]1NC(=O)[C@]2(C)CSC(=N2)c2ccnc(c2)CNC(=O)C[C@@H](/C=C/CCS)NC1=O [Compound P12, Peptide Isostere Pyridyl “OUT” Thiol]
- IC50 (HDAC1): 13.2 nM
- IC50 range in words for HDACs 1-3 (HDACs 1-3): double-digit nM range
- IC50 (HDAC2): 20.8 nM
- IC50 (HDAC6): 2850 nM
- IC50 (HDAC8): 1490 nM
- IC50 (HDAC3): 14.6 nM

Compound: CC(C)[C@H]1NC(=O)[C@@]2(C)CSC(=N2)c2csc(n2)CNC(=O)C[C@H](/C=C/CCS)OC1=O [Enantiomer (2), (−)-Largazole Thiol]
- decrease in potency versus the natural product (human HDACs): three orders of magnitude

Compound: COC(=O)C[C@@H](/C=C/CCSC(c1ccccc1)(c1ccccc1)c1ccccc1)NC(=O)[C@@H](NC(=O)[C@]1(C)CSC(c2cccc(CNC(=O)OC(C)(C)C)n2)=N1)C(C)C [Trityl Protected Peptide Isostere Pyridyl “IN” Macrocycle]
- ring closure, isolated yield [3]: 33%

Compound: CCCCCCCC(=O)SCC/C=C/[C@@H]1CC(=O)NCc2cc(ccn2)C2=N[C@@](C)(CS2)C(=O)N[C@@H](C(C)C)C(=O)O1 [compound of formula A]
- GI50 (NCI-60 cancer cell lines [4]; [13]): 3.29e-08 M
- GI50 (NCI-60 cancer cell lines [4]; read-out: GI50 concentrations (M), order of magnitude): 1e-08 M
- Total Impacted Cell Lines (n), LC50, CNS (CNS cancer cell lines [5]): 1
- Percent of Cell Lines Impacted (%), LC50, CNS (CNS cancer cell lines [5]): 20%
- CC50 (melanoma cell lines [6]): 2.02e-07 M
- Percent of Cell Lines Impacted (%), GI50 (NCI-60 cancer cell lines [7]): 100%
- Percent of Cell Lines Impacted (%), LC50 (NCI-60 cancer cell lines [7]): 16%
- Percent of Cell Lines Impacted (%), TGI (NCI-60 cancer cell lines [7]): 56%
- Total Impacted Cell Lines (n), TGI (NCI-60 cancer cell lines [7]): 32
- Average Concentration (M), TGI (NCI-60 cancer cell lines [7]): 8.49e-07 M
- Total Impacted Cell Lines (n), LC50, Colon (colon cancer cell lines [8]): 3
- Percent of Cell Lines Impacted (%), LC50, Colon (colon cancer cell lines [8]): 43%
- Total Impacted Cell Lines (n), LC50, Melanoma (melanoma cell lines [9]): 3
- Percent of Cell Lines Impacted (%), LC50, Melanoma (melanoma cell lines [9]): 38%
- CC50 (CNS cancer cell lines [10]): 1.38e-05 M
- CC50 (colon cancer cell lines [11]): 1.48e-06 M
- Total Impacted Cell Lines (n), LC50, Renal (renal cancer cell lines): 2
- Percent of Cell Lines Impacted (%), LC50, Renal (renal cancer cell lines): 25%

Compound: CC(C)[C@@H]1NC(=O)[C@]2(C)CSC(=N2)c2csc(n2)CNC(=O)C[C@@H](/C=C/CCS)NC1=O [Largazole peptide isostere thiol]
- IC50 [1]: 11900 nM
- IC50 [2]: 1740 nM
- IC50 (HDAC8): 255 nM

Compound: CCCCCCCC(=O)SCC/C=C/[C@@H]1CC(=O)NCc2nc(cs2)C2=N[C@@](C)(CS2)C(=O)N[C@@H](C(C)C)C(=O)N1 [compound of formula aa]
- GI50 (NCI-60 cancer cell lines [4]; [13]): 6.56e-07 M
- Total Impacted Cell Lines (n), LC50, CNS (CNS cancer cell lines [5]): 2
- Percent of Cell Lines Impacted (%), LC50, CNS (CNS cancer cell lines [5]): 33%
- CC50 (melanoma cell lines [6]): 6.52e-06 M
- Percent of Cell Lines Impacted (%), GI50 (NCI-60 cancer cell lines [7]): 100%
- Percent of Cell Lines Impacted (%), LC50 (NCI-60 cancer cell lines [7]): 17%
- Percent of Cell Lines Impacted (%), TGI (NCI-60 cancer cell lines [7]): 64%
- Total Impacted Cell Lines (n), TGI (NCI-60 cancer cell lines [7]): 37
- Average Concentration (M), TGI (NCI-60 cancer cell lines [7]): 1.31e-05 M
- Total Impacted Cell Lines (n), LC50, Colon (colon cancer cell lines [8]): 3
- Percent of Cell Lines Impacted (%), LC50, Colon (colon cancer cell lines [8]): 43%
- Total Impacted Cell Lines (n), LC50, Melanoma (melanoma cell lines [9]): 2
- Percent of Cell Lines Impacted (%), LC50, Melanoma (melanoma cell lines [9]): 25%
- CC50 (CNS cancer cell lines [10]): 7.17e-06 M
- CC50 (colon cancer cell lines [11]): 9.45e-06 M
- Total Impacted Cell Lines (n), LC50, Ovarian [12]: 1
- Percent of Cell Lines Impacted (%), LC50, Ovarian ([12]; five-dose): 14%
- Total Impacted Cell Lines (n), LC50, Renal (renal cancer cell lines): 2
- Percent of Cell Lines Impacted (%), LC50, Renal (renal cancer cell lines): 25%
